In patent US9120749B2, “Quinoline derivatives and MELK inhibitors containing the same” (ONCOTHERAPY SCIENCE, INC., priority 2010, dated 2015):
Where a name gives a salt, the structure may show the parent alone. Read-outs that look alike come from different tables or passages of the source.

Assays:
22Rv1 cells = experiment: Cell-based assay: anti-proliferative activity, Cell Counting Kit-8, 72 hours (22Rv1)
A549 cells = experiment: Cell-based assay: anti-proliferative activity, Cell Counting Kit-8, 72 hours (A549); conditions: 72 hours
Outline: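 A549 cells seeded in 96-well plates and exposed to candidate inhibitors for 72 hours. Growth measured with Cell Counting Kit-8; IC50 values calculated from the dose response.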

T47D cells = experiment: Cell-based assay: anti-proliferative activity, Cell Counting Kit-8, 72 hours (T47D)
Outline: (§1)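 IC50 values come from CCK-8 growth measurements taken 72 hours post-treatment of plated cells with test compounds. Expression of MELK across the panel was assessed through immunoblot of unfractionated lysates.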

MELK = MELK (Homo sapiens, UniProt Q14680); experiment: Kinase assay: MELK activity, phosphorylation of FITC-labeled histone H3 peptide measured by IMAP fluorescence polarization; assay type: biochemical; conditions: read-out: IC50 (μM) (kinase assay)
Outline: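 Substrate is FITC-labeled histone H3 peptide. Compounds come from a 12.5 mM DMSO stock, diluted so assay DMSO is 1%. The stop step adds threefold-volume progressive binding solution, followed by 0.5 h at room temperature and an FP read.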

DU4475 cells = experiment: Cell-based assay: anti-proliferative activity, Cell Counting Kit-8, 72 hours (DU4475)
HT-1197 cells = experiment: Cell-based assay: anti-proliferative activity, Cell Counting Kit-8, 72 hours (HT-1197, negative control without MELK expression); conditions: Homo sapiens, HT1197, 72 h, HT1197 cells (negative control, no MELK expression), 72 hours
Outline: as §1

Sequence of MELK (Q14680 whole entry, looked up): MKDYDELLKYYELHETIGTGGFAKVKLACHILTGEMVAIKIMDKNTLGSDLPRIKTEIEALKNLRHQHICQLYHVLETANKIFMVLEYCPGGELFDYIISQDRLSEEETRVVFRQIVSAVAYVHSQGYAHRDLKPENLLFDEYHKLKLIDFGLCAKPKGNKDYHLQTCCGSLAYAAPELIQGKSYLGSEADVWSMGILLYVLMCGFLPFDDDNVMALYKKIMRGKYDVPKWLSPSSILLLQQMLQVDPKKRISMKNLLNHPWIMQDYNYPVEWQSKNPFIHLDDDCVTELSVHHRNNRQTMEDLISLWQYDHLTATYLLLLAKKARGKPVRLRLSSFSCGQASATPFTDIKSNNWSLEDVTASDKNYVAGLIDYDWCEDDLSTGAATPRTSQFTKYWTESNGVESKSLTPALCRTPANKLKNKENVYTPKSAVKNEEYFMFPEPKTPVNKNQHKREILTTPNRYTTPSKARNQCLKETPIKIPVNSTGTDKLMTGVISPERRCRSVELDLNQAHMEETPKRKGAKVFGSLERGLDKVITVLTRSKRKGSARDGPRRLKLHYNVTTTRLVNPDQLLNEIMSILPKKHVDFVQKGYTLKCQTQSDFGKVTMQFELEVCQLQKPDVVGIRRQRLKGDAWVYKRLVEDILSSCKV

SMILES | IC50 (22Rv1 cells; Homo sapiens, 22Rv1, 72 h) | IC50 (A549 cells; Homo sapiens, A549, 72 h) | IC50 (T47D cells; Homo sapiens, T47D, 72 h) | IC50 (MELK) | IC50 (DU4475 cells; Homo sapiens, DU-4475, 72 h) | IC50 (HT-1197 cells) | IC50 (22Rv1 cells; hydrochloride) | IC50 (A549 cells; hydrochloride) | IC50 (T47D cells; 72 hours, hydrochloride) | IC50 (MELK; hydrochloride) | IC50 (DU4475 cells; hydrochloride) | IC50 (MELK; MELK kinase assay, IMAP fluorescence polarization, 50 micro-M ATP)
CC(=O)c1cnc2ccc(-c3cc(Cl)c(O)c(Cl)c3)cc2c1N[C@H]1CC[C@H](CN2CCC[C@@H]2CO)CC1 [Example 812] | 0.2 µM | 0.18 µM | 0.15 µM | 0.0017 µM | 0.086 µM | – | – | – | – | – | – | –
CC(=O)c1cnc2ccc(-c3cc(Cl)c(O)c(Cl)c3)cc2c1N[C@H]1CC[C@H](CN2CCN(C)CC2)CC1 [Example 782, 1-(6-(3,5-dichloro-4-hydroxyphenyl)-4-(1R,4R)-4-((4-methylpiperazin-1-yl)methyl)cyclohexylamino)quinolin-3-yl)ethanone hydrochloride] | 0.41 µM | 0.23 µM | 0.15 µM | – | 0.16 µM | 5.9 µM | – | – | – | – | – | –
CN(C)CCNc1ccc(Nc2c(C(=O)C3CC3)cnc3ccc(-c4cc(F)c(O)c(Cl)c4)cc23)cn1 [Example 776, (6-(3-chloro-5-fluoro-4-hydroxyphenyl)-4-(6-(2-(dimethylamino)ethylamino)pyridin-3-ylamino)quinolin-3-yl)(cyclopropyl)methanone] | 0.15 µM | 0.08 µM | 0.073 µM | – | 0.038 µM | 1.2 µM | – | – | – | – | – | –
CC(=O)c1cnc2ccc(-c3cc(Cl)c(O)c(Cl)c3)cc2c1Nc1cccc(CCN2CCCC2)c1 [Example 801, 1-{6-(3,5-Dichloro-4-hydroxyphenyl)-4-[3-(2-(pyrrolidin-1-yl)ethyl)phenylamino]quinolin-3-yl}ethanone] | 0.15 µM | 0.081 µM | 0.37 µM | 0.004 µM | 0.06 µM | – | – | – | – | – | – | –
CC(=O)c1cnc2ccc(-c3cc(F)c(O)c(Cl)c3)cc2c1Nc1ccc(NCCN(C)C)nc1 [Example 762, 1-(6-(3-chloro-5-fluoro-4-hydroxyphenyl)-4-(6-(2-(dimethylamino)ethylamino)pyridin-3-ylamino)quinolin-3-yl)ethanone] | – | 0.25 µM | 0.12 µM | 0.014 µM | 0.089 µM | 5.2 µM | – | – | – | – | – | –
CC(=O)c1cnc2ccc(-c3cc(Cl)c(O)c(Cl)c3)cc2c1Nc1cccc(CCN2CCCC2)c1 [Example 802, 1-(6-(3,5-dichloro-4-hydroxyphenyl)-4-(3-(2-(pyrrolidin-1-yl)ethyl)phenylamino)quinolin-3-yl)ethanone hydrochloride] | – | – | – | – | – | – | 0.16 µM | 0.08 µM | 0.45 µM | 0.0021 µM | 0.072 µM | –
CC(=O)c1cnc2ccc(-c3cc(Cl)c(O)c(Cl)c3)cc2c1N[C@@H]1CCC[C@@H](CN(C)C)C1 [Example 750, 1-(6-(3,5-dichloro-4-hydroxyphenyl)-4-((1R,3R)-3-((dimethylamino)methyl)cyclohexylamino)quinolin-3-yl)ethanone] | – | 0.39 µM | 0.2 µM | 0.0023 µM | 0.19 µM | 1.7 µM | – | – | – | – | – | –
CC(=O)c1cnc2ccc(-c3cc(Cl)c(O)c(Cl)c3)cc2c1N[C@H]1CCC[C@@H](CN2CCN(C)CC2)C1 [Example 835, 1-(6-(3,5-dichloro-4-hydroxyphenyl)-4-((1S,3R)-3-((4-methylpiperazin-1-yl)methyl)cyclohexylamino)quinolin-3-yl)ethanone hydrochloride] | 0.81 µM | 0.79 µM | 0.58 µM | – | 0.6 µM | 2.7 µM | – | – | – | – | – | –
COc1cc(-c2ccc3ncc(C(C)=O)c(N[C@@H]4CCC[C@@H](CN(C)C)C4)c3c2)cc(Cl)c1O [Example 752, 1-(6-(3-chloro-4-hydroxy-5-methoxyphenyl)-4-((1R,3R)-3-((dimethylamino)methyl)cyclohexylamino)quinolin-3-yl)ethanone] | – | 0.2 µM | 0.18 µM | 0.001 µM | 0.17 µM | 3.4 µM | – | – | – | – | – | –
CC(=O)c1cnc2ccc(-c3cc(Cl)c(O)c(Cl)c3)cc2c1Nc1cnn(C2CCN(C)CC2)c1 [Example 836, 1-(6-(3,5-dichloro-4-hydroxyphenyl)-4-((1-(1-methylpiperidin-4-yl)-1H-pyrazol-4-yl)amino)quinolin-3-yl)ethanone dihydrochloride] | 0.27 µM | 0.45 µM | 0.35 µM | – | 0.082 µM | – | – | – | – | – | – | 0.0014 µM
CC(=O)c1cnc2ccc(-c3cc(Cl)c(O)c(Cl)c3)cc2c1Nc1ccc(NCCN(C)C)nc1 [Example 758, 1-(6-(3,5-dichloro-4-hydroxyphenyl)-4-(6-(2-(dimethylamino)ethylamino)pyridin-3-ylamino)quinolin-3-yl)ethanone] | – | 0.22 µM | 0.15 µM | 0.0053 µM | 0.055 µM | 24 µM | – | – | – | – | – | –
CC(=O)c1cnc2ccc(-c3cc(F)c(O)c(Cl)c3)cc2c1Nc1cccc(CCN2CCCC2)c1 [Example 803, 1-(6-(3-chloro-5-fluoro-4-hydroxyphenyl)-4-(3-(2-(pyrrolidin-1-yl)ethyl)phenylamino)quinolin-3-yl)ethanone] | 0.44 µM | 0.17 µM | 0.65 µM | 0.016 µM | 0.12 µM | – | – | – | – | – | – | –
CC(=O)c1cnc2ccc(-c3cc(F)c(O)c(Cl)c3)cc2c1N[C@@H]1CCC[C@@H](CN(C)C)C1 [Example 751, 1-(6-(3-chloro-5-fluoro-4-hydroxyphenyl)-4-((1R,3R)-3-((dimethylamino)methyl)cyclohexylamino)quinolin-3-yl)ethanone] | – | 0.58 µM | 0.32 µM | 0.0067 µM | 0.29 µM | 1.7 µM | – | – | – | – | – | –
O=C(c1cnc2ccc(-c3cc(F)c(O)c(Cl)c3)cc2c1Nc1cccc(CCN2CCCC2)c1)C1CC1 [Example 800, (6-(3-chloro-5-fluoro-4-hydroxyphenyl)-4-(3-(2-(pyrrolidin-1-yl)ethyl)phenylamino)quinolin-3-yl)(cyclopropyl)methanone hydrochloride] | – | – | – | – | – | – | 0.17 µM | 0.041 µM | 0.26 µM | 0.012 µM | 0.046 µM | –
CCC(=O)c1cnc2ccc(-c3cc(F)c(O)c(Cl)c3)cc2c1N[C@H]1CC[C@H](N(C)C)CC1 [Example 757, 1-(6-(3-chloro-5-fluoro-4-hydroxyphenyl)-4-((trans-4-(dimethylamino)cyclohexyl)amino)quinolin-3-yl)propan-1-one] | – | 0.15 µM | 0.064 µM | 0.0062 µM | 0.069 µM | 0.76 µM | – | – | – | – | – | –
COc1cc(-c2ccc3ncc(C(C)=O)c(N[C@H]4CC[C@H](CN5CCC(O)C5)CC4)c3c2)cc(Cl)c1O (some centres unmarked) [Example 749] | – | 0.22 µM | 0.12 µM | 0.0017 µM | 0.21 µM | 6.4 µM | – | – | – | – | – | –
CC(=O)c1cnc2ccc(-c3cc(Cl)c(O)c(Cl)c3)cc2c1N[C@H]1CC[C@H](CN2CCC(O)C2)CC1 (some centres unmarked) [Example 753] | – | 0.37 µM | 0.13 µM | 0.0015 µM | 0.057 µM | 71 µM | – | – | – | – | – | –
O=C(c1cnc2ccc(-c3cc(Cl)c(O)c(Cl)c3)cc2c1Nc1cccc(CCN2CCCC2)c1)C1CC1 [Example 797, Cyclopropyl{6-(3,5-dichloro-4-hydroxyphenyl)-4-[3-(2-(pyrrolidin-1-yl)ethyl)phenylamino]quinolin-3-yl}methanone] | 0.12 µM | 0.022 µM | 0.31 µM | 0.0056 µM | 0.03 µM | – | – | – | – | – | – | –
O=C(c1cnc2ccc(-c3cc(Cl)c(O)c(Cl)c3)cc2c1Nc1cccc(CCN2CCCC2)c1)C1CC1 [Example 798, cyclopropyl(6-(3,5-dichloro-4-hydroxyphenyl)-4-(3-(2-(pyrrolidin-1-yl)ethyl)phenylamino)quinolin-3-yl)methanone hydrochloride] | – | – | – | – | – | – | 0.092 µM | 0.019 µM | 0.16 µM | 0.0029 µM | 0.02 µM | –
CC(=O)c1cnc2ccc(-c3cc(Cl)c(O)c(Cl)c3)cc2c1N[C@H]1CC[C@H](CN2CCC[C@H]2CO)CC1 [Example 792, 1-(6-(3,5-dichloro-4-hydroxyphenyl)-4-((1S,4r)-4-(((S)-2-(hydroxymethyl)pyrrolidin-1-yl)methyl)cyclohexylamino)quinolin-3-yl)ethanone] | 0.12 µM | 0.1 µM | 0.079 µM | 0.0011 µM | 0.073 µM | – | – | – | – | – | – | –
CN(C)CCNc1ccc(Nc2c(C(=O)C3CC3)cnc3ccc(-c4cc(Cl)c(O)c(Cl)c4)cc23)cn1 [Example 747, cyclopropyl(6-(3,5-dichloro-4-hydroxyphenyl)-4-(6-(2-(dimethylamino)ethylamino)pyridin-3-ylamino)quinolin-3-yl)methanone] | – | 0.091 µM | 0.16 µM | 0.0043 µM | 0.043 µM | 2.6 µM | – | – | – | – | – | –
COc1cc(-c2ccc3ncc(C(=O)C4CC4)c(Nc4ccc(NCCN(C)C)nc4)c3c2)cc(Cl)c1O [Example 746, (6-(3-chloro-4-hydroxy-5-methoxyphenyl)-4-(6-(2-(dimethylamino)ethylamino)pyridin-3-ylamino)quinolin-3-yl)(cyclopropyl)methanone] | – | 0.18 µM | 0.23 µM | 0.0029 µM | 0.11 µM | 6.2 µM | – | – | – | – | – | –
